Experimental data published in patent publication US5332427A, “Wood preservatives” (priority 1991, dated 1994).

Key:
Coriolus versicolor [1] = experiment: Wood weight reduction after weather resistance operation, test method of Japan Wood Preservation Association, Coriolus versicolor/Japanese beech (Test Example 3); details: oil formulation, Japanese beech, 30 weather resistance cycles, 8 weeks
Experimental: (§1) An oil formulation of each of the test compounds shown in Table 5 was prepared according to Formulation Example 1 and was tested based on the test method of Japan Wood Preservation Association. The summary of the test method is as follows:
(§2) The cut end surfaces of a wooden piece of Japanese beech or Japanese cedar (thickness: 5 mm, width: 20 mm, length: 40 mm; the surface of 40×20 mm is of straight grain) were sealed with an epoxy resin and the wooden piece was impregnated with the oil formulation (110±10 g/m^2 surface area), and thereafter air-dried for 20 days to prepare a test specimen. The test specimen was dipped in still water [water:wooden piece=10:1 (volume ratio)] at 25°±3° C. for 5 hours, and then the water was volatilized at 40±2° C. for 19 hours. This weather resistance operation was repeated 30 times. The test specimen after the weather resistance operation was dried at 60°±2° C. for 48 hours and then placed in a desicator for about 30 minutes, after which the weight (W3) of the test specimen was measured. The test described above was repeated for 9 wooden pieces. The test specimen was sterilized and then, placed in a culture vial in which wood rotting fungi (Coriolus versicolor/Japanese beech, Tyromyces palustris/Japanese cedar) were being cultured, in which cultivation was effected at 26°±2° C. at a humidity of 80% for 8 weeks. After 8 weeks, the test specimen was taken out of the culture vial and the mycelium and other extraneous matters were removed therefrom, after which the test specimen was dried at 60°±2° C. for 48 hours and placed in a desicator for about 30 minutes. Thereafter, the weight (W4) of the test specimen was measured. The weight reduction percentage was calculated according to the following equation: [formula]

Tyromyces palustris [2] = experiment: Wood weight reduction after weather resistance operation, test method of Japan Wood Preservation Association, Tyromyces palustris/Japanese cedar (Test Example 3); details: oil formulation, Japanese cedar, 30 weather resistance cycles, 8 weeks
Experimental: as §1, §2

Coriolus versicolor [3] = experiment: Mycelium growth inhibition on potato dextrose agar medium, Coriolus versicolor (Test Example 2); type: cell-based; details: four days after inoculation
Experimental: (§3) Each of the test compounds shown in Tables 3 and 4 was dissolved in a definite amount of dimethylsulfoxide to prepare a 1% W/V solution. A definite amount of the resulting formulation was added to a potato dextrose agar medium just after sterilization (using a moist heat sterilizer) and about 20 cc of the mixture was poured into a Petri dish of 9 cm in diameter and the Petri dish was placed at room temperature. After the medium was solidified, mycelium from a colony of Coriolus versicolor or Tyromyces palustris cultured previously was punched with a cork borer of 5 mm in diameter and the mycelium was inoculated at the center of the test medium. Four days after the inoculation, the diameter of colony extended from the inoculation point was measured and the percentage of mycelium growth inhibition was calculated according to the following equation: [formula]

[4] = Discoloration (coloration) of oil formulation-coated filter paper under irradiation with light (Test Example 1); type: physicochemical; set-up: key: -: No discoloration (coloration); +: Slight discoloration (coloration); ++: Prominent discoloration (coloration); details: 1% oil formulation, 100 ml per m^2 of filter paper, light of 6000-7000 lux for 5 minutes
Experimental: A 1% oil formulation of each of the test compounds shown in Table 2 was prepared according to Formulation Example 1. The oil formulation was coated on a filter paper having a diameter of 5.5 cm in an amount of 100 ml of the oil formulation per m^2 of the filter paper and the filter paper was air-dried. The filter paper thus prepared was subjected to irradiation with light of 6000-7000 lux for 5 minutes and then, taken out, after which the degree of discoloration (coloration) was observed. The degree of discoloration (coloration) was determined based on the following standard.
No discoloration (coloration): -
Slight discoloration (coloration): +
Prominent discoloration (coloration): ++

Tyromyces palustris [5] = experiment: Mycelium growth inhibition on potato dextrose agar medium, Tyromyces palustris (Test Example 2); type: cell-based; details: four days after inoculation
Experimental: as §3

Compound | Average weight reduction percentage (Coriolus versicolor [1]; concentration 1.0%) | Average weight reduction percentage (Tyromyces palustris [2]; concentration 1.0%) | Percentage of growth inhibition for Coriolus versicolor (Coriolus versicolor [3]; 1 ppm) | Percentage of growth inhibition for Coriolus versicolor (Coriolus versicolor [3]; 2 ppm) | Percentage of growth inhibition for Coriolus versicolor (Coriolus versicolor [3]; 4 ppm) | Degree of discoloration (coloration) [4] | Percentage of growth inhibition for Tyromyces palustris (Tyromyces palustris [5]; 1 ppm) | Percentage of growth inhibition for Tyromyces palustris (Tyromyces palustris [5]; 2 ppm) | Percentage of growth inhibition for Tyromyces palustris (Tyromyces palustris [5]; 4 ppm) | Average weight reduction percentage (Coriolus versicolor [1]; concentration 0.5%) | Average weight reduction percentage (Tyromyces palustris [2]; concentration 0.5%)
3-Iodo-2-propenylbutyl carbamate [Compound (B)] | 7.6% | 0.78% | 81.3 Percentage | 91.9 Percentage | 100 Percentage | + | 80.5 Percentage | 88.7 Percentage | 100 Percentage |  | 
CC(C)(C)C(O)/C(=C\c1ccc(Cl)cc1)n1cncn1 (single isomer, unassigned; (-)) [Compound (2), (-)-(E)-1-(4-chlorophenyl)-4,4-dimethyl-2-(1,2,4-triazol-1-yl)-1-penten-3-ol] |  |  | 85.3 Percentage | 87.2 Percentage | 93.9 Percentage | - | 94.6 Percentage | 98.8 Percentage | 100 Percentage |  | 
CC(C)(C)C(O)/C(=C\c1ccc(Cl)cc1Cl)n1cncn1 (single isomer, unassigned; (-)) [Compound (1), (-)-(E)-1-(2,4-dichlorophenyl)-4,4-dimethyl-2-(1,2,4-triazol-1-yl)-1-penten-3-ol] | 0.64% | 0.19% | 86.1 Percentage | 93.9 Percentage | 98.3 Percentage | - | 79.1 Percentage | 93.0 Percentage | 95.6 Percentage | 0.70% | 0.25%
Clc1ccc(OCOCC#CI)cc1 [Compound (C), 4-Chlorophenyl-3-iodopropargyl formal] | 1.1% | 0.34% | 68.2 Percentage | 88.7 Percentage | 97.9 Percentage | ++ | 77.0 Percentage | 98.6 Percentage | 100 Percentage |  | 
CCOC(=O)OCC(I)=C(Br)I [Compound (A), 3-Bromo-2,3-diiodo-2-propenylethyl carbonate] | 3.9% | 3.1% | 20.0 Percentage | 41.7 Percentage | 72.8 Percentage |  | 26.6 Percentage | 43.0 Percentage | 63.3 Percentage |  | 
